Reference: the supplement of paper PMC13380429
± gives the standard deviation of the averaged measurements.

Columns and labels:
Settings in all cases: 72 h
HepG2 [1] = test: cell viability relative to DMSO; higher = less toxic
Vero E6 [2] = test: as above
U2OS [3] = test: as above
Calu-3 [4] = test: as above
Caco-2 [5] = test: as above
HepG2 [6] = test: relative viability EC50 (midpoint between 100% and the lowest measured viability); higher = less toxic
Vero E6 [7] = test: as above
U2OS [8] = test: as above
Calu-3 [9] = test: as above
Caco-2 [10] = test: as above
HepG2 [11] = test: drug sensitivity score (DSS) for viability; higher = more toxic; extreme values may be limits of the assay
Vero E6 [12] = test: as above
U2OS [13] = test: as above
Calu-3 [14] = test: as above
Caco-2 [15] = test: as above

Compound	cell viability (HepG2 [1]; 1 nM) [%]	cell viability (HepG2 [1]; 10 nM) [%]	cell viability (HepG2 [1]; 100 nM) [%]	cell viability (HepG2 [1]; 1000 nM) [%]	cell viability (HepG2 [1]; 10000 nM) [%]	cell viability (Vero E6 [2]; 1 nM) [%]	cell viability (Vero E6 [2]; 10 nM) [%]	cell viability (Vero E6 [2]; 100 nM) [%]	cell viability (Vero E6 [2]; 1000 nM) [%]	cell viability (Vero E6 [2]; 10000 nM) [%]	cell viability (U2OS [3]; 1 nM) [%]	cell viability (U2OS [3]; 10 nM) [%]	cell viability (U2OS [3]; 100 nM) [%]	cell viability (U2OS [3]; 1000 nM) [%]	cell viability (U2OS [3]; 10000 nM) [%]	cell viability (Calu-3 [4]; 1 nM) [%]	cell viability (Calu-3 [4]; 10 nM) [%]	cell viability (Calu-3 [4]; 100 nM) [%]	cell viability (Calu-3 [4]; 1000 nM) [%]	cell viability (Calu-3 [4]; 10000 nM) [%]	cell viability (Caco-2 [5]; 1 nM) [%]	cell viability (Caco-2 [5]; 10 nM) [%]	cell viability (Caco-2 [5]; 100 nM) [%]	cell viability (Caco-2 [5]; 1000 nM) [%]	cell viability (Caco-2 [5]; 10000 nM) [%]	relative viability EC50 (HepG2 [6]) [µM]	relative viability EC50 (Vero E6 [7]) [µM]	relative viability EC50 (U2OS [8]) [µM]	relative viability EC50 (Calu-3 [9]) [µM]	relative viability EC50 (Caco-2 [10]) [µM]	drug sensitivity score (HepG2 [11])	drug sensitivity score (Vero E6 [12])	drug sensitivity score (U2OS [13])	drug sensitivity score (Calu-3 [14])	drug sensitivity score (Caco-2 [15])
NS(=O)(=O)c1cc2c(cc1C(F)(F)F)NCNS2(=O)=O [hydroflumethiazide]	104	103	114	99.3	96.8	105	92.2	98.5	97.2	107	102	101	95.3	101	98.2	97.1	101	96.7	103	105	99.5	99.1	89.7	98.8	92.2	> 10	> 10	> 10	> 10	> 10	0	0	0	0	0
CC(=O)[C@]1(O)Cc2c(O)c3c(c(O)c2[C@@H](O[C@H]2C[C@H](N)[C@H](O)[C@H](C)O2)C1)C(=O)c1ccccc1C3=O [idarubicin]	94.8	50.3	29.7	0	0.1	106	94	58.2	6.1	2.9	100	86.3	60.7	1	0	104	90.1	48.6	27.7	9.7	103	96.1	62.1	10.8	17.4	0.016	0.12	0.128	0.0921	0.117	32.2	22	22.2	21	20.7
COC1=C(OC)C(=O)C(CCCCCCCCCCO)=C(C)C1=O [idebenone]	96.1	95.6	99.4	95.9	97.7	102	100	96.9	97.8	97.7	98.6	105	94.9	97.7	93.8	100	104	90.3	98	95.5	96.4	101	103	98.4	88.6	> 10	> 10	> 10	> 10	> 10	0	0	0	0	0.1
CC(=O)N(CC(O)CO)c1c(I)c(C(=O)NCC(O)CO)c(I)c(C(=O)NCC(O)CO)c1I (stereo not given) [iohexol]	96 ± 9.3	103 ± 4.3	99 ± 5.9	102 ± 11	91.7 ± 3	96.2 ± 3.1	101 ± 2.2	98.7 ± 7.5	99.7 ± 2.1	106 ± 6.8	98 ± 4.5	99.2 ± 1.8	99.4 ± 2	99.9 ± 1.1	104.5 ± 0.14	104 ± 4.5	95.5 ± 2.8	95.8 ± 1.3	104 ± 15	103.7 ± 0.99	95.9 ± 4.7	101 ± 3	101 ± 2.3	106 ± 6.4	96.3 ± 6	> 10	> 10	> 10	> 10	> 10	0	0	0	0	0
CC(C)CC(N)=O [isovaleramide]	103	99.4	101	95.5	101	102	101	102	97.9	93.1	102	92.8	99.3	89.1	96.7	113	103	97.1	105	95.4	106	92.6	99.1	99.4	101	> 10	> 10	> 10	> 10	> 10	0	0	0	0	0
CS(=O)(=O)c1cc(F)cc2c3c(n(Cc4ccc(Cl)cc4)c12)[C@@H](CC(=O)O)CC3 [laropiprant]	99	94.2	100	98.6	101	102	99.6	106	98.2	91.9	100	101	98.3	106	97.5	101	95.4	90.3	110	94.6	95.4	102	91	95.4	88.5	> 10	> 10	> 10	> 10	> 10	0	0	0	0	0
CCCCCCCCCCCC(=O)O [lauric-acid]	105	106	87.4	96	94.3	111	113	101	104	93.5	102	95.3	102	97.6	98.1	102	108	101	100	97.5	94.1	102	111	110	98.2	> 10	> 10	> 10	> 10	> 10	0	0	0	0	0
[NH-]c1c[n+](N2CCOCC2)no1 [linsidomine]	96.9	106	97.7	96.8	104	98.9	99.3	95.6	100	91.1	105	98.8	100	96.3	101	100	96	105	94.3	116	102	96.1	95.8	96.1	89.4	> 10	> 10	> 10	> 10	> 10	0	0	0	0	0
COc1cc(C[C@H](C)[C@H](C)Cc2ccc3c(c2)OCO3)ccc1O [macelignan]	98.4	103	92.1	81.1	86.3	100	106	98.9	95.4	101	98.5	99	94	101	91.5	99.3	102	102	101	103	87.3	102	93.9	96.6	87.3	> 10	> 10	> 10	> 10	> 10	3.3	0	0	0	0
COC(=O)[C@@H](N)CS [mecysteine]	108	107	99.6	91.1	105	95.8	97.5	98.5	88.6	101	98.2	101	96.3	100	95.3	104	106	87.2	109	99.2	96.1	95	97.7	99.8	102	> 10	> 10	> 10	> 10	> 10	0	0	0	0	0
Cc1cc(C)cc(OCC2CNC(=O)O2)c1 (stereo not given) [metaxalone]	92.1	99.7	87	93.2	101	101	103	102	105	97.7	97.4	96.8	97.1	99.2	98.8	95.6	102	103	100	95.4	100	101	99.9	103	105	> 10	> 10	> 10	> 10	> 10	0	0	0	0	0
Cc1cc(=O)[nH]c(=S)[nH]1 [methylthiouracil]	107	108	95.1	95.3	105	101	92.6	100	92.1	97.8	103	99	98.7	97.4	97.3	106	109	83.8	97.7	96.6	98.7	96.6	99.3	96.3	94.6	> 10	> 10	> 10	> 10	> 10	0	0	0	0	0
O=P(O)(O)C(O)(Cc1cnc2ccccn12)P(=O)(O)O [minodronic-acid]	99.2	102	106	85.5	101	106	102	98.6	100	98.1	100	97.6	95.9	102	102	98.1	95.1	104	96.5	106	98.1	103	96.4	103	98.6	> 10	> 10	> 10	> 10	> 10	0	0	0	0	0
Oc1ccc2c3c1O[C@H]1[C@@H](O)CC[C@@]4(O)[C@@H](C2)N(CC2CCC2)CC[C@]314 [nalbuphine]	107	99.2	110	95.9	91.4	99.9	104	95.3	102	96.5	97.7	96.5	98.2	92.4	96.9	103	95.2	95.9	117	105	102	102	101	88.4	98.6	> 10	> 10	> 10	> 10	> 10	0	0	0	0	0
